Key:
[1] = biological target: T1, Interleukin-1 receptor-associated kinase 4 (Homo sapiens, UniProt Q9NWZ3); experiment: Inhibition of IRAK4 (unknown origin) in presence of ATP by enzymatic assay
T1 sequence (Q9NWZ3 whole entry): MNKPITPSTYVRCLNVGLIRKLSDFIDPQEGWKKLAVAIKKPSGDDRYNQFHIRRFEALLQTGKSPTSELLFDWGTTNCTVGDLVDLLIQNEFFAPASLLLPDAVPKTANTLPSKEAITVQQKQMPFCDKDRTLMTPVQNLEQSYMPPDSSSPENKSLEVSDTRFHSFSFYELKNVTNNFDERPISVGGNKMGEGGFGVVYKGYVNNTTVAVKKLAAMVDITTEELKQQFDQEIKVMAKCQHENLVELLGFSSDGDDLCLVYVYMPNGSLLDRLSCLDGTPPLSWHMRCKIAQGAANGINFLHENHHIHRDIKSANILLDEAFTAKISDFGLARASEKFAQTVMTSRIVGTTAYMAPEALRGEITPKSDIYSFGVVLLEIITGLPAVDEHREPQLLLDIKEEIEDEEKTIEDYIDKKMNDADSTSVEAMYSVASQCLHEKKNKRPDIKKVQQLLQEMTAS

[2] = biological target: T1, Interleukin-1 receptor-associated kinase 4; experiment: Inhibition of IRAK4 (unknown origin) phosphorylation by cell based assay
[3] = Lipophilicity, LogD at pH 7.4 of the compound by shake flask method; type: physicochemical; settings: buffer
[4] = Metabolic stability in human liver microsomes assessed as intrinsic clearance; type: ADME, Microsome; settings: read-out: CLH
[5] = Metabolic stability in human hepatocytes assessed as intrinsic clearance measured per 10^6 cells; type: ADME, cell-based, Hepatocyte; settings: read-out: CLH
[6] = Apparent permeability across apical to basolateral side in human Caco-2 cells measured for 360 mins by liquid scintillation counting based analysis; type: ADME, cell-based
[7] = Efflux ratio of apparent permeability basolateral to apical side over apical to basolateral side in human Caco-2 cells measured for 360 mins by liquid scintillation counting based analysis; type: ADME, cell-based
[8] = Clearance in human; type: ADME
[9] = Clearance in human assessed as liver blood flow; type: ADME, tissue-based
[10] = biological target: T2, Receptor-type tyrosine-protein kinase FLT3 (Homo sapiens, UniProt P36888); experiment: Inhibition of FLT3 (unknown origin) in presence of 600 uM ATP
T2 sequence (P36888 whole entry): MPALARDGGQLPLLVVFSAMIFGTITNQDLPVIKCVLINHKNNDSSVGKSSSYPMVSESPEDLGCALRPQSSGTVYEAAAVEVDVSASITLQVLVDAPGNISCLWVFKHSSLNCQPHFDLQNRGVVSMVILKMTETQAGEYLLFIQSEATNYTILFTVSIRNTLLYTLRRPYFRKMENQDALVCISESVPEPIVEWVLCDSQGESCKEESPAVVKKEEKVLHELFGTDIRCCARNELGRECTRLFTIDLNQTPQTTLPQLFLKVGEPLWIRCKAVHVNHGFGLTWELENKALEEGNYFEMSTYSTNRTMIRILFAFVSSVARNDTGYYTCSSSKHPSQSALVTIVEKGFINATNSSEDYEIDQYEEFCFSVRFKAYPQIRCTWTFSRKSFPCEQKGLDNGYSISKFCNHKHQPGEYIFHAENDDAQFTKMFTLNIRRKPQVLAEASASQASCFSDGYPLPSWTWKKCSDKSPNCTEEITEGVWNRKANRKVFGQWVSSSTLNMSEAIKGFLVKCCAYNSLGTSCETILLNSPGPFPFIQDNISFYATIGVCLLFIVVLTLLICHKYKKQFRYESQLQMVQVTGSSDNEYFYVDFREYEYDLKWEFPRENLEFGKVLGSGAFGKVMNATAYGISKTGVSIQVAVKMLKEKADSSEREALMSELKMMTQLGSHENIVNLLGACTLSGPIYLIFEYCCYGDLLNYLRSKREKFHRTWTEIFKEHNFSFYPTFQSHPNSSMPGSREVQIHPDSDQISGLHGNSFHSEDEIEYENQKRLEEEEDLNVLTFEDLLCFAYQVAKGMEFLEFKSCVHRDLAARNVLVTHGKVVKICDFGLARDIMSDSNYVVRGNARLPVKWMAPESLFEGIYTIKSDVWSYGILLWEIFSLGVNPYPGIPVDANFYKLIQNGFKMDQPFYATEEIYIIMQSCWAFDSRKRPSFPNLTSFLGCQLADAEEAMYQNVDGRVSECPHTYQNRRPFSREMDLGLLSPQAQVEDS

[11] = biological target: High affinity nerve growth factor receptor (Homo sapiens, UniProt P04629); experiment: Inhibition of TRKA (unknown origin) in presence of 400 uM ATP
[12] = Metabolic stability in human cytosol assessed as intrinsic clearance; type: ADME, subcellular
[13] = organism: Homo sapiens; experiment: Selectivity index, ratio of IC50 for inhibition of FLT3 (unknown origin) to IC50 for inhibition of IRAK4 (unknown origin)

High affinity nerve growth factor receptor, sequence (P04629 whole entry): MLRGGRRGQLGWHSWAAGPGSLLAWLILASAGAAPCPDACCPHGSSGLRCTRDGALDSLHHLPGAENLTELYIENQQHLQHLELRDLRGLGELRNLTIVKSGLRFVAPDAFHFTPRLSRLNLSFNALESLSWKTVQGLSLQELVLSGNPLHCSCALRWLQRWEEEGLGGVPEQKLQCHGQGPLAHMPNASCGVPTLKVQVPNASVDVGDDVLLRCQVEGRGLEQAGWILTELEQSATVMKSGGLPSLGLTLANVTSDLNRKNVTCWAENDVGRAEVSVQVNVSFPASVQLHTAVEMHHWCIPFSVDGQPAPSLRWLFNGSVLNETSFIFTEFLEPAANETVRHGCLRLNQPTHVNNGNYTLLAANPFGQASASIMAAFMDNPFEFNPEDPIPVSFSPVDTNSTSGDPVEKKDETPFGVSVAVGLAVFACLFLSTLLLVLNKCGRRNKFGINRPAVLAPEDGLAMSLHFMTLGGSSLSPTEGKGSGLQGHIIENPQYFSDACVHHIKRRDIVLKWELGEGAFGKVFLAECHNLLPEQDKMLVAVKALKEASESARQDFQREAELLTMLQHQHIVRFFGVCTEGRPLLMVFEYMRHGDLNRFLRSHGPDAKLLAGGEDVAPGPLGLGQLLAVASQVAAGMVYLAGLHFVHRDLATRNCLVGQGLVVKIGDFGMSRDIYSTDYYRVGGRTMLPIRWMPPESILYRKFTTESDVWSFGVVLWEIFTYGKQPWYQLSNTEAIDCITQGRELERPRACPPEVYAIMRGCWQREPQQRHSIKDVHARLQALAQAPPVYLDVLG

Compound | IC50 [1] [nM] | IC50 [2] [nM] | logD [3] | microsomal CLint [4] [µL/min/mg] | hepatocyte CLint [5] [µL/min/1e6 cells] | Papp A→B at 6 h [6] [×10⁻⁶ cm/s] | efflux ratio at 6 h [7] | clearance [8] [mL/min/kg] | LBF [9] [%] | IC50 [10] [nM] | IC50 [11] [nM] | microsomal CLint [12] [µL/min/mg] | Ratio IC50 [13]
Cc1nc2c(OC3(C)CC3)nc(Nc3cnn(C4CC5(C4)CN(C)C5)c3)nc2cc1F | 3 | 200 | 2.2 | < 3 | 4 |  |  |  |  |  |  |  | 
N#CCc1ccc2nc(Nc3cnn(C4CCOCC4)c3)nc(NC3CCOCC3)c2n1 | 15 | 570 | 1.9 | 110 |  |  |  |  |  |  |  |  | 
CN1CC2(CC(n3cc(Nc4nc(OC5(C)CC5)c5nc(C6CC6)c(F)cc5n4)cn3)C2)C1 | 3 | 300 | 2.6 | < 3 | < 1 |  |  |  |  |  |  |  | 
CN1CCC(n2cc(Nc3nc(OC4(C)CC4)c4nc(-c5ccn(C)n5)ccc4n3)cn2)CC1 | 490 | 21000 | 2.1 | 18 |  |  |  |  |  |  |  |  | 
Cn1cc(Nc2nc(NC3CCOCC3)c3nc(CC#N)ccc3n2)cn1 | 139 | 2100 | 1.7 |  |  |  |  |  |  |  |  |  | 
Cc1ncc(-c2nc3c(OC4(C)CC4)nc(Nc4cnn([C@@H]5C[C@H]6C[C@@H]5CN6C)c4)nc3cc2F)cn1 | 32 | 1100 | 1.5 | 14 |  |  |  |  |  |  |  |  | 
COC(=O)N1CCN([C@H]2CC[C@H](Nc3nc(Nc4cnn(C)c4)nc4ccc(CC#N)nc34)CC2)CC1 | 3 | 170 |  |  |  | 9.3 | 24 | 13 | 70 |  |  |  | 
CC(=O)N1CCC(n2cc(Nc3nc(OC4CCOCC4)c4nc(C)ccc4n3)cn2)CC1 | 3 | 71 | 2.3 | 33 | 4.6 | 45 | 2.6 |  |  | 30 | 20 |  | 
Cn1cc(Nc2nc(N[C@@H]3CCOC3)c3nc(CC#N)ccc3n2)cn1 | 211 | 3500 | 1.5 |  |  |  |  |  |  |  |  |  | 
Cc1ncncc1-c1ccc2nc(Nc3cnn(C4CCN(C)CC4)c3)nc(OC3(C)CC3)c2n1 | 5 | 170 | 1.9 | 44 | 4.7 |  |  |  |  |  |  | 4.8 | 
Cc1ncc(-c2nc3c(NC4(C)CC4)nc(Nc4cnn(C5CC6(C5)CN(C)C6)c4)nc3cc2F)cn1 | 0.6 | 54 | 2.1 | 11 | < 1 |  |  |  |  |  |  |  | 
CN1CCC(n2cc(Nc3nc(OC4(C)CC4)c4nc(-c5cnn(C)c5)ccc4n3)cn2)CC1 | 3 | 210 | 2.2 | 15 | 1.7 |  |  |  |  | 170 |  |  | < 5
CN1CCC(n2cc(Nc3nc(OC4(C)CC4)c4nc(C5CC5)ccc4n3)cn2)CC1 | 2 | 38 | 2.8 | 37 | 4.6 |  |  |  |  |  |  |  | 
CC(C)Nc1nc(Nc2cnn(C)c2)nc2ccc(CC#N)nc12 | 51 | 570 | 2.4 |  |  |  |  |  |  |  |  |  | 
CN1CCC(n2cc(Nc3nc(OC4(C)CC4)c4nc(-c5cncnc5)c(F)cc4n3)cn2)CC1 | 1 | 29 |  | 88 | 14 |  |  |  |  |  |  | 20 | 
Cc1ccc2nc(Nc3cnn(C4CCN(C)CC4)c3)nc(OC3(C)CC3)c2n1 | 3 | 100 | 1.8 | 18 | 1.9 | 20 | 2.5 | 5 | 20 | 16 |  | < 0.5 | > 30

Reference: ChEMBL document CHEMBL5244269, “Improving metabolic stability and removing aldehyde oxidase liability in a 5-azaquinazoline series of IRAK4 inhibitors” (Bioorg Med Chem, 2020)
